Where “and” joins values, the source holds several entries; their conditions need not be identical. Identical values can stand only once.
Legend:
Type in all cases: functional
Cavia porcellus [1] = species: Cavia porcellus; experiment: Ability of I-MDP to inhibit migration of cultured guinea pig peritoneal exudate macrophages at 0.1 ug/mL concentration in expt 1
Cavia porcellus [2] = species: Cavia porcellus; experiment: Ability of P-MDP to inhibit migration of cultured guinea pig peritoneal exudate macrophages at 1 ug/mL concentration in expt 3
Cavia porcellus [3] = species: Cavia porcellus; experiment: Ability of I-MDP to induce spreading of cultured guinea pig peritoneal exudate macrophages at 1 ug/mL concentration
Cavia porcellus [4] = species: Cavia porcellus; experiment: Ability of I-MDP to inhibit migration of cultured guinea pig peritoneal exudate macrophages at 0.1 ug/mL concentration in expt 2
Cavia porcellus [5] = species: Cavia porcellus; experiment: Ability of I-MDP to induce spreading of cultured guinea pig peritoneal exudate macrophages at 0.01 ug/mL concentration
Cavia porcellus [6] = species: Cavia porcellus; experiment: Ability of I-MDP to inhibit migration of cultured guinea pig peritoneal exudate macrophages at 0.01 ug/mL concentration in expt 1
Cavia porcellus [7] = species: Cavia porcellus; experiment: Ability of P-MDP to inhibit migration of cultured guinea pig peritoneal exudate macrophages at 10 ug/mL concentration in expt 4
Cavia porcellus [8] = species: Cavia porcellus; experiment: Ability of L,L-MDP to induce spreading of cultured guinea pig peritoneal exudate macrophages at 10 ug/mL concentration
Cavia porcellus [9] = species: Cavia porcellus; experiment: Ability of P-MDP to induce spreading of cultured guinea pig peritoneal exudate macrophages at 1 ug/mL concentration
Cavia porcellus [10] = species: Cavia porcellus; experiment: Ability of L,L-MDP to inhibit migration of cultured guinea pig peritoneal exudate macrophages at 10 ug/mL concentration in expt 5
Cavia porcellus [11] = species: Cavia porcellus; experiment: Ability of L,L-MDP to induce spreading of cultured guinea pig peritoneal exudate macrophages at 1 ug/mL concentration
Cavia porcellus [12] = species: Cavia porcellus; experiment: Ability of P-MDP to inhibit migration of cultured guinea pig peritoneal exudate macrophages at 0.01 ug/mL concentration in expt 3
Cavia porcellus [13] = species: Cavia porcellus; experiment: Ability of P-MDP to inhibit migration of cultured guinea pig peritoneal exudate macrophages at 0.1 ug/mL concentration in expt 3
Cavia porcellus [14] = species: Cavia porcellus; experiment: Ability of P-MDP to inhibit migration of cultured guinea pig peritoneal exudate macrophages at 1 ug/mL concentration in expt 4
Cavia porcellus [15] = species: Cavia porcellus; experiment: Ability of I-MDP to inhibit migration of cultured guinea pig peritoneal exudate macrophages at 10 ug/mL concentration in expt 2
Cavia porcellus [16] = species: Cavia porcellus; experiment: Ability of I-MDP to induce spreading of cultured guinea pig peritoneal exudate macrophages at 0.1 ug/mL concentration
Cavia porcellus [17] = species: Cavia porcellus; experiment: Ability of P-MDP to induce spreading of cultured guinea pig peritoneal exudate macrophages at 10 ug/mL concentration
Cavia porcellus [18] = species: Cavia porcellus; experiment: Ability of L,L-MDP to induce spreading of cultured guinea pig peritoneal exudate macrophages at 0.01 ug/mL concentration
Cavia porcellus [19] = species: Cavia porcellus; experiment: Ability of P-MDP to inhibit migration of cultured guinea pig peritoneal exudate macrophages at 0.01 ug/mL concentration in expt 2
Cavia porcellus [20] = species: Cavia porcellus; experiment: Ability of I-MDP to inhibit migration of cultured guinea pig peritoneal exudate macrophages at 1 ug/mL concentration in expt 2
Cavia porcellus [21] = species: Cavia porcellus; experiment: Ability of P-MDP to induce spreading of cultured guinea pig peritoneal exudate macrophages at 0.01 ug/mL concentration
Cavia porcellus [22] = species: Cavia porcellus; experiment: Ability of L,L-MDP to induce spreading of cultured guinea pig peritoneal exudate macrophages at 0.1 ug/mL concentration
Cavia porcellus [23] = species: Cavia porcellus; experiment: Ability of L,L-MDP to inhibit migration of cultured guinea pig peritoneal exudate macrophages at 0.1 ug/mL concentration in expt 4
Cavia porcellus [24] = species: Cavia porcellus; experiment: Ability of I-MDP to induce spreading of cultured guinea pig peritoneal exudate macrophages at 10 ug/mL concentration
Cavia porcellus [25] = species: Cavia porcellus; experiment: Ability of P-MDP to induce spreading of cultured guinea pig peritoneal exudate macrophages at 0.1 ug/mL concentration
Cavia porcellus [26] = species: Cavia porcellus; experiment: Ability of L,L-MDP to inhibit migration of cultured guinea pig peritoneal exudate macrophages at 1 ug/mL concentration in expt 4
Cavia porcellus [27] = species: Cavia porcellus; experiment: Ability of I-MDP to inhibit migration of cultured guinea pig peritoneal exudate macrophages at 1 ug/mL concentration in expt 1
Cavia porcellus [28] = species: Cavia porcellus; experiment: Ability of L,L-MDP to inhibit migration of cultured guinea pig peritoneal exudate macrophages at 0.01 ug/mL concentration in expt 4
Cavia porcellus [29] = species: Cavia porcellus; experiment: Ability of MDP to inhibit migration of cultured guinea pig peritoneal exudate macrophages at 0.1 ug/mL concentration in expt 3
Cavia porcellus [30] = species: Cavia porcellus; experiment: Ability of MDP to inhibit migration of cultured guinea pig peritoneal exudate macrophages at 1 ug/mL concentration in expt 5
Cavia porcellus [31] = species: Cavia porcellus; experiment: Ability of MDP to inhibit migration of cultured guinea pig peritoneal exudate macrophages at 0.1 ug/mL concentration in expt 1
Cavia porcellus [32] = species: Cavia porcellus; experiment: Ability of MDP to inhibit migration of cultured guinea pig peritoneal exudate macrophages at 1 ug/mL concentration in expt 3
Cavia porcellus [33] = species: Cavia porcellus; experiment: Ability of MDP to inhibit migration of cultured guinea pig peritoneal exudate macrophages at 0.1 ug/mL concentration in expt 5
Cavia porcellus [34] = species: Cavia porcellus; experiment: Ability of MDP to inhibit migration of cultured guinea pig peritoneal exudate macrophages at 10 ug/mL concentration in expt 4
Cavia porcellus [35] = species: Cavia porcellus; experiment: Ability of MDP to inhibit migration of cultured guinea pig peritoneal exudate macrophages at 0.1 ug/mL concentration in expt 4
Cavia porcellus [36] = species: Cavia porcellus; experiment: Ability of MDP to induce spreading of cultured guinea pig peritoneal exudate macrophages at 0.1 ug/mL concentration
Cavia porcellus [37] = species: Cavia porcellus; experiment: Ability of MDP to inhibit migration of cultured guinea pig peritoneal exudate macrophages at 0.01 ug/mL concentration in expt 1
Cavia porcellus [38] = species: Cavia porcellus; experiment: Ability of MDP to inhibit migration of cultured guinea pig peritoneal exudate macrophages at 1 ug/mL concentration in expt 1
Cavia porcellus [39] = species: Cavia porcellus; experiment: Ability of MDP to inhibit migration of cultured guinea pig peritoneal exudate macrophages at 0.01 ug/mL concentration in expt 2
Cavia porcellus [40] = species: Cavia porcellus; experiment: Ability of MDP to inhibit migration of cultured guinea pig peritoneal exudate macrophages at 10 ug/mL concentration in expt 5
Cavia porcellus [41] = species: Cavia porcellus; experiment: Ability of MDP to inhibit migration of cultured guinea pig peritoneal exudate macrophages at 1 ug/mL concentration in expt 4
Cavia porcellus [42] = species: Cavia porcellus; experiment: Ability of MDP to inhibit migration of cultured guinea pig peritoneal exudate macrophages at 0.01 ug/mL concentration in expt 3
Cavia porcellus [43] = species: Cavia porcellus; experiment: Ability of MDP to induce spreading of cultured guinea pig peritoneal exudate macrophages at 0.01 ug/mL concentration
Cavia porcellus [44] = species: Cavia porcellus; experiment: Ability of MDP to induce spreading of cultured guinea pig peritoneal exudate macrophages at 1 ug/mL concentration
Cavia porcellus [45] = species: Cavia porcellus; experiment: Ability of MDP to induce spreading of cultured guinea pig peritoneal exudate macrophages at 10 ug/mL concentration
Cavia porcellus [46] = species: Cavia porcellus; experiment: Ability of MDP to inhibit migration of cultured guinea pig peritoneal exudate macrophages at 0.1 ug/mL concentration in expt 2
Cavia porcellus [47] = species: Cavia porcellus; experiment: Ability of MDP to inhibit migration of cultured guinea pig peritoneal exudate macrophages at 1 ug/mL concentration in expt 2

## CC(=O)N[C@H]1C(O)O[C@H](CO)[C@@H](O)[C@@H]1O[C@H](C)C(=O)N[C@@H](C)C(=O)N[C@H](CCC(=O)O)C(N)=O (some centres not stated) [MURAMYL DIPEPTIDE]
Cavia porcellus [1]
  Migration index: 68 and 88
Cavia porcellus [2]
  Migration index: 17 and 34
Cavia porcellus [3]
  Spreading: 73%
Cavia porcellus [4]
  Migration index: 64 and 68
Cavia porcellus [5]
  Spreading: 50%
Cavia porcellus [6]
  Migration index: 119 and 92 and 108
Cavia porcellus [7]
  Migration index: 52 and 63
Cavia porcellus [8]
  Spreading: 76%
Cavia porcellus [9]
  Spreading: 75.5%
Cavia porcellus [10]
  Migration index: 65
Cavia porcellus [11]
  Spreading: 51.5%
Cavia porcellus [12]
  Migration index: 12
Cavia porcellus [13]
  Migration index: 52 and 34 and 26
Cavia porcellus [14]
  Migration index: 62
Cavia porcellus [15]
  Migration index: 64
Cavia porcellus [16]
  Spreading: 72.5%
Cavia porcellus [17]
  Spreading: 79%
Cavia porcellus [18]
  Spreading: 48%
Cavia porcellus [19]
  Migration index: 63
Cavia porcellus [20]
  Migration index: 61 and 64
Cavia porcellus [21]
  Spreading: 62.5%
Cavia porcellus [22]
  Spreading: 56%
Cavia porcellus [23]
  Migration index: 58
Cavia porcellus [24]
  Spreading: 80%
Cavia porcellus [25]
  Spreading: 80%
Cavia porcellus [26]
  Migration index: 52
Cavia porcellus [27]
  Migration index: 70 and 114
Cavia porcellus [28]
  Migration index: 54

## CC(=O)N[C@@H]1[C@@H](O[C@H](C)C(=O)N[C@@H](C)C(=O)N[C@H](CCC(=O)[O-])C(N)=O)[C@H](O)[C@@H](COc2nc(O)nc(N=C3C=CC(=C4c5ccc(O)cc5Oc5cc(O)ccc54)C(C(=O)[O-])=C3)n2)O[C@H]1O.[Na+].[Na+]
Cavia porcellus [29]
  Migration index: 27
Cavia porcellus [30]
  Migration index: 70
Cavia porcellus [31]
  Migration index: 102
Cavia porcellus [32]
  Migration index: 18
Cavia porcellus [33]
  Migration index: 74
Cavia porcellus [34]
  Migration index: 53
Cavia porcellus [35]
  Migration index: 51
Cavia porcellus [36]
  Spreading: 68.5%
Cavia porcellus [37]
  Migration index: 73
Cavia porcellus [38]
  Migration index: 63
Cavia porcellus [39]
  Migration index: 84
Cavia porcellus [40]
  Migration index: 74
Cavia porcellus [41]
  Migration index: 49
Cavia porcellus [42]
  Migration index: 62
Cavia porcellus [43]
  Spreading: 45%
Cavia porcellus [44]
  Spreading: 74.3%
Cavia porcellus [45]
  Spreading: 73.3%
Cavia porcellus [46]
  Migration index: 52
Cavia porcellus [47]
  Migration index: 60

Reference: ChEMBL document CHEMBL1122412, “Synthesis of a biologically active fluorescent muramyl dipeptide congener” (1983)
